Assay results from PMC11941939, “Tackling Prostate Cancer with Theranostic E5B9-Bombesin Target Modules (TMs): From Imaging to Treatment with UniCAR T-Cells” (International Journal of Molecular Sciences, 2025).
Where two headings read alike, the source gives them in different places. Starred links: 1 amine or outer side, 2 acyl side, 3 side chain; linkers in the order of their positions; H or OH if unused. Positions of bridges follow the written chain, without caps; N, C: chain ends. Non-standard residues stand in square brackets, D forms with d. Residues, ends and D or L forms follow the SMILES beside them. Chains are numbered I, II in the order given. *: point of attachment. NOTA(2S-Bn(4-NHCS)) = O=C(O)CN1CCN(CC(=O)O)C[C@H](Cc2ccc(NC(=S)*)cc2)N(CC(=O)O)CC1; X1 = O=C([C@H](CCCCn1nnc2c1-c1ccccc1CN([*:3])c1ccccc1-2)N[*:1])[*:2]; X2 = O=C(CCOCCOCCOCCOCCNC(=O)CCN1C(=O)CC([*:1])C1=O)NCCC(=O)[*:2]; γ4hIle = CC[C@H](C)[C@@H](CCC(=O)[*:2])N[*:1]; Tle = CC(C)(C)[C@H](N)C(=O)O; Ava = NCCCCC(=O)O; Sar = CNCC(=O)O

Assays:
GRPR = molecular target: T1, GRPR (Homo sapiens, UniProt P30550); experiment: Competitive binding assay against 125I-Tyr4-bombesin in PC3 cells
T1 construct: Both cell lines express GRPR; endogenous in cells; host or cells: PC-3 cells (dimeric TM also tested in LNCaP cells)
T1 sequence (P30550 whole entry): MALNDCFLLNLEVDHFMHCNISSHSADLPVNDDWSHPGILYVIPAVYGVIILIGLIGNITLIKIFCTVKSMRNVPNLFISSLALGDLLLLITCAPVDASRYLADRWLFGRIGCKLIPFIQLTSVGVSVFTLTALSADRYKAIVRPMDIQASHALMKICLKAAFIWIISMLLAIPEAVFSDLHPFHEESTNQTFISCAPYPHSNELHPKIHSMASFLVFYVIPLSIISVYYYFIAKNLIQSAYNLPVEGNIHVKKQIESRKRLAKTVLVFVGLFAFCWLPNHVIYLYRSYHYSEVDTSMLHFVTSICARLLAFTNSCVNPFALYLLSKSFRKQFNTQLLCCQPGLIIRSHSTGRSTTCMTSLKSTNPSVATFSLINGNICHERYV
Method: Then, ^125I-Tyr^4-BBN (0.05 nM final concentration) was added to each well, and the plates were incubated for 2 h at 4 °C. The cells were then rinsed twice with ice-cold phosphate-buffered saline (PBS) and harvested. The cells were placed on a Packard II gamma counter (PerkinElmer, Boston, MA, USA) to determine the cell-associated radioactivity. After decay correction, data were plotted using GraphPad Prism 9 Software (San Diego, CA, USA) using the sigmoidal dose–response equation, with counts per minute (cpm) of radioactivity bound versus the log of the concentration of NOTA-E5B9-BBN2 monomeric or dimeric TM for the determination of IC50 values. NOTA-E5B9-BBN2 dimeric TM was also tested in LNCaP cells. Gastrin-releasing peptide (GRP) served as the control.

LNCaP cancer cells = format: cell-based, human; settings: 48 h
Method: (§1) Standard chromium (^51Cr)-release cytotoxicity assays were performed to assess the killing of tumor cells by redirected UniCAR T-cells as previously described. Briefly, chromium-labeled target cells were incubated for 48 h with UniCAR T-cells at an effector-to-target cell (E:T) ratio of 5:1 in the absence or presence of different TM concentrations. The radioactive signal in the supernatants was measured using a MicroBeta Microplate Counter (PerkinElmer, Rodgau, Germany).

PC3 cancer cells = format: cell-based, human; settings: 48 h
Method: as §1

[1] = Dynamic PET imaging, tumor uptake in LNCaP xenografts; format: in vivo, mouse; settings: male, BALB/c Nude, mouse, in vivo, iv, total radioactivity
Method: (§2) For PET experiments and as prostate cancer xenograft models, male PC3 and LNCaP tumor-bearing BALB/c Nude mice were used (body weight: 22−24 g, Charles River Laboratories, Saint-Constant, QC, Canada). To generate the tumor xenografts, about 5−6 × 10^6 PC3 cells in 100 μL of PBS or 20−25 × 10^6 LNCaP cells in 200 μL of PBS/Matrigel (50/50) were subcutaneously injected into the left shoulder of male BALB/c Nude mice. For the androgen-dependent LNCaP model, a 1.5 mg pellet containing dehydroepiandrosterone DHEA (60-day release; Innovative Research of America, Sarasota, FL, U.S.A.) was implanted subcutaneously into the upper right flank shortly before LNCaP cell injection. PC3 tumors and LNCaP tumors reached sizes of ∼300−500 mm^3 after 3−5 weeks and 6−8 weeks, respectively, and were used for the in vivo experiments. PET imaging of E5B9-^68Ga-NOTA-BBN2 monomeric and dimeric TMs was performed on an INVEON® PET/CT scanner (Siemens Preclinical Solutions, Knoxville, TN, USA). Prior to radiotracer injection, mice were anesthetized through inhalation of isoflurane in 40% oxygen/60% nitrogen (gas flow 1 L/min), and body temperature was kept constant at 37 °C. The mice were placed in a prone position in the center of the field of view. A transmission scan for attenuation correction was not acquired. Mice were injected with 4−8 MBq of E5B9-^68Ga-NOTA-BBN2 or E5B9-^68Ga-NOTA-(BBN2)2 in 150 μL 10% EtOH/saline solution through a tail vein catheter. For blocking studies, PC3- and LNCaP-tumor-bearing […] mice were pre-dosed i.v. with 300 μg of Ava-BBN2 (15 min prior to radiotracer injection) in 50 uL saline. Data acquisition was performed over 60 min in 3D list mode. The dynamic list mode data were sorted into sinograms with 54 time frames (10 × 2, 8 × 5, 6 × 10, 6 × 20, 8 × 60, 10 × 120, 6 × 300 s). The frames were reconstructed using maximum a posteriori (MAP) as the reconstruction mode. No correction for partial volume effects was applied. The image files were processed using the ROVER v2.0.51 software (ABX GmbH, Radeberg, Germany). […] ROIs covered all visible tumor mass of the subcutaneous tumors, and the thresholds were defined by 50% of the maximum radioactivity uptake level. Mean standardized uptake values [SUVmean = (activity/mL tissue)/(injected activity/body weight), […]] were calculated for each ROI, and time−activity curves (TACs) were generated. For each experimental group (different radiotracers and mouse tumor models as well as control and blocking experiments), n = 3–6 mice were measured. […] Blocking experiments were conducted in the same mice: first, a control scan was measured and then repeated 1–2 days after in the presence of a blocking concentration of 300 μg of Ava-BBN2. All semi-quantified PET data are presented as means ± SEM. […]

[2] = Dynamic PET imaging, tumor uptake in PC3 xenografts; format: in vivo, mouse; settings: male, BALB/c Nude, mouse, in vivo, iv, total radioactivity
Method: as §2

PC3 tumors = experiment: as above; format: in vivo, mouse; settings: PC3 tumors, pre-dosing i.v. with 300 µg Ava-BBN2 15 min before radiotracer, n = 3, p < 0.05
Method: as §2

[3] = competition against 125I-Tyr4-bombesin (0.05 nM) in PC3 cells, 2 h at 4 °C, triplicates, gamma counter, mean ± SEM, read-out: IC50 (competition binding to GRPR)

| Compound | IC50 (GRPR; [3]) [nM] | SUV at 1 h [1] [SUV] | SUV at 1 h [2] [SUV] | other results |
| --- | --- | --- | --- | --- |
| CC[C@H](C)[C@@H](CCC(=O)N[C@H](C(N)=O)C(C)(C)C)NC(=O)[C@H](Cc1c[nH]cn1)NC(=O)CN(C)C(=O)[C@@H](NC(=O)[C@H](C)NC(=O)[C@H](Cc1c[nH]c2ccccc12)NC(=O)[C@H](CCC(N)=O)NC(=O)CCCCNC(=O)CC[C@H](NC(=O)[C@H](CCCCn1nnc2c1-c1ccccc1CN(C(=O)CCNC(=O)CCOCCOCCOCCOCCNC(=O)CCN1C(=O)CC(SC[C@H](NC(=O)[C@H](Cc3ccc(O)cc3)NC(=O)[C@H](CCC(=O)O)NC(=O)[C@H](CC(=O)O)NC(=O)[C@@H](NC(=O)[C@@H](NC(=O)[C@H](CCC(=O)O)NC(=O)[C@@H]3CCCN3C(=O)[C@H](CC(C)C)NC(=O)[C@@H]3CCCN3C(=O)[C@H](CCCCN)NC(=O)[C@@H](N)CO)C(C)C)[C@@H](C)O)C(=O)O)C1=O)c1ccccc1-2)NC(=O)CCCCNC(=S)Nc1ccc(C[C@H]2CN(CC(=O)O)CCN(CC(=O)O)CCN2CC(=O)O)cc1)C(=O)NCCCCC(=O)N[C@@H](CCC(N)=O)C(=O)N[C@@H](Cc1c[nH]c2ccccc12)C(=O)N[C@@H](C)C(=O)N[C@H](C(=O)N(C)CC(=O)N[C@@H](Cc1c[nH]cn1)C(=O)N[C@H](CCC(=O)N[C@H](C(N)=O)C(C)(C)C)[C@@H](C)CC)C(C)C)C(C)C (stereo partly shown) [E5B9-NOTA-(BBN2)2 TM] | 0.7 ± 0.1 |  |  |  |
| CC[C@H](C)[C@@H](CCC(=O)N[C@H](C(N)=O)C(C)(C)C)NC(=O)[C@H](Cc1c[nH]cn1)NC(=O)CN(C)C(=O)[C@@H](NC(=O)[C@H](C)NC(=O)[C@H](Cc1c[nH]c2ccccc12)NC(=O)[C@H](CCC(N)=O)NC(=O)[C@H](CCCCn1nnc2c1-c1ccccc1CN(C(=O)CCNC(=O)CCOCCOCCOCCOCCNC(=O)CCN1C(=O)CC(SC[C@H](NC(=O)[C@H](Cc3ccc(O)cc3)NC(=O)[C@H](CCC(=O)O)NC(=O)[C@H](CC(=O)O)NC(=O)[C@@H](NC(=O)[C@@H](NC(=O)[C@H](CCC(=O)O)NC(=O)[C@@H]3CCCN3C(=O)[C@H](CC(C)C)NC(=O)[C@@H]3CCCN3C(=O)[C@H](CCCCN)NC(=O)[C@@H](N)CO)C(C)C)[C@@H](C)O)C(=O)O)C1=O)c1ccccc1-2)NC(=O)CCCCNC(=S)Nc1ccc(C[C@H]2CN(CC(=O)O)CCN(CC(=O)O)CCN2CC(=O)O)cc1)C(C)C (stereo partly drawn) [E5B9-NOTA-BBN2 TM] (I: H-SKPLPEVTDEYC-OH / II: {NOTA(2S-Bn(4-NHCS))-Ava}-[X1]QWAV[Sar]H[γ4hIle][Tle]-NH2; linker I:12-II:1 via X2) | 190 ± 0.04 |  |  | EC50 (LNCaP cancer cells): 29.8 nM; EC50 (PC3 cancer cells): 32 nM |
| CSCC[C@H](NC(=O)[C@H](CC(C)C)NC(=O)[C@H](Cc1c[nH]cn1)NC(=O)CNC(=O)[C@@H](NC(=O)[C@H](C)NC(=O)[C@H](Cc1c[nH]c2ccccc12)NC(=O)[C@H](Cc1c[nH]cn1)NC(=O)[C@H](CC(N)=O)NC(=O)CNC(=O)[C@H](CCCN=C(N)N)NC(=O)[C@@H]1CCCN1C(=O)[C@H](Cc1ccc(O)cc1)NC(=O)[C@H](CCSC)NC(=O)[C@H](CCCCN)NC(=O)[C@@H](NC(=O)[C@H](CC(C)C)NC(=O)[C@@H](NC(=O)[C@@H](NC(=O)CNC(=O)CNC(=O)CNC(=O)[C@H](C)NC(=O)[C@@H]1CCCN1C(=O)[C@H](CC(C)C)NC(=O)[C@@H]1CCCN1C(=O)[C@@H](N)C(C)C)[C@@H](C)O)C(C)C)[C@@H](C)O)C(C)C)C(N)=O [GRP, gastrin-releasing peptide, reference compound] |  |  |  | IC50 (GRPR): 0.15 ± 0.05 nM |
| CC[C@H](C)[C@@H](CCC(=O)N[C@H](C(N)=O)C(C)(C)C)NC(=O)[C@H](Cc1c[nH]cn1)NC(=O)CN(C)C(=O)[C@@H](NC(=O)[C@H](C)NC(=O)[C@H](Cc1c[nH]c2ccccc12)NC(=O)[C@H](CCC(N)=O)NC(=O)CCCCNC(=S)Nc1ccc(C[C@H]2CN(CC(=O)O)CCN(CC(=O)O)CCN2CC(=O)O)cc1)C(C)C [^68Ga-NOTA-BBN2, metal not drawn, reference compound] ({NOTA(2S-Bn(4-NHCS))-Ava}-QWAV[Sar]H[γ4hIle][Tle]-NH2; N-terminus and C-terminus assumed) |  | 0.38 ± 0.02 | 0.46 ± 0.05 |  |
| CC[C@H](C)[C@@H](CCC(=O)N[C@H](C(N)=O)C(C)(C)C)NC(=O)[C@H](Cc1c[nH]cn1)NC(=O)CN(C)C(=O)[C@@H](NC(=O)[C@H](C)NC(=O)[C@H](Cc1c[nH]c2ccccc12)NC(=O)[C@H](CCC(N)=O)NC(=O)[C@H](CCCCn1nnc2c1-c1ccccc1CN(C(=O)CCNC(=O)CCOCCOCCOCCOCCNC(=O)CCN1C(=O)CC(SC[C@H](NC(=O)[C@H](Cc3ccc(O)cc3)NC(=O)[C@H](CCC(=O)O)NC(=O)[C@H](CC(=O)O)NC(=O)[C@@H](NC(=O)[C@@H](NC(=O)[C@H](CCC(=O)O)NC(=O)[C@@H]3CCCN3C(=O)[C@H](CC(C)C)NC(=O)[C@@H]3CCCN3C(=O)[C@H](CCCCN)NC(=O)[C@@H](N)CO)C(C)C)[C@@H](C)O)C(=O)O)C1=O)c1ccccc1-2)NC(=O)CCCCNC(=S)Nc1ccc(C[C@H]2CN(CC(=O)O)CCN(CC(=O)O)CCN2CC(=O)O)cc1)C(C)C (stereo partly drawn) [monomeric ^68Ga-BBN2 TM, metal not drawn] (I: H-SKPLPEVTDEYC-OH / II: {NOTA(2S-Bn(4-NHCS))-Ava}-[X1]QWAV[Sar]H[γ4hIle][Tle]-NH2; linker I:12-II:1 via X2) |  | 0.44 ± 0.11 | 0.44 ± 0.01 | in vivo blocking of tumor uptake (PC3 tumors): 39 ± 9% |
